Data as given in patent US5041567A, “Antibacterial monic acid derivatives” (Beecham Group plc, priority 1982, dated 1991).
In brackets after ≈: the same amount, converted by molar mass. Read-outs that look alike come from different tables or passages of the source.

Key:
Strep. faecalis I = assay: MIC against human bacteria in vitro; format: cell-based; conditions: Enterococcus faecalis; Strep. faecalis I; 5% chocolated horse blood agar, 18 hours; read-out: MIC
P. mirabilis 889 = assay: MIC against human bacteria in vitro; format: cell-based; conditions: Proteus mirabilis; P. mirabilis 889; 5% chocolated horse blood agar, 18 hours; read-out: MIC
[1] = system: M. suipneumoniae NCTC 10110; assay: MIC against mycoplasma in vitro; format: cell-based; conditions: Mesomycoplasma hyopneumoniae, NCTC10110, 144 h
M. suipneumoniae TAM 6N = assay: MIC against mycoplasma in vitro; format: cell-based; conditions: Mesomycoplasma hyopneumoniae, TAM6N, 144 h
M. hyorhinis ATCC 25021 = assay: MIC against mycoplasma in vitro; format: cell-based; conditions: Mesomycoplasma hyorhinis, ATCC25021, 144 h
M. hyorhinis ATCC 23234 = assay: MIC against mycoplasma in vitro; format: cell-based; conditions: Mesomycoplasma hyorhinis, ATCC23234, 144 h
Sarcina lutea 8340 = assay: MIC against human bacteria in vitro; format: cell-based; conditions: Micrococcus luteus; Sarcina lutea 8340; 5% chocolated horse blood agar, 18 hours; read-out: MIC
Bacillus subtilis 6633 = assay: MIC against human bacteria in vitro; format: cell-based; conditions: Bacillus subtilis 6633; 5% chocolated horse blood agar, 18 hours; read-out: MIC
S. typhimurium S18 = assay: MIC against veterinary bacteria in vitro; conditions: Salmonella enterica, TYPHIMURIUM, 18 h
Description: (§1) The activity of the compounds of the Examples against various veterinarily important bacteria, was assayed in vitro using two-fold serial dilutions in Diagnostic Sensitivity Test Agar inoculated with 10^4 organisms.

M. pneumoniae ATCC 15492 = assay: MIC against mycoplasma in vitro; format: cell-based; conditions: Mycoplasmoides pneumoniae, ATCC15492, 144 h
M. suipneumoniae JF 435 = assay: MIC against mycoplasma in vitro; format: cell-based; conditions: Mesomycoplasma hyopneumoniae, JF435, 144 h
[2] = system: Neisseria catarrhalis 1502; assay: MIC against human bacteria in vitro; format: cell-based; conditions: Neisseria catarrhalis 1502; 5% chocolated horse blood agar, 18 hours; read-out: MIC
[3] = system: M. suipneumoniae ATCC 25095; assay: MIC against mycoplasma in vitro; format: cell-based; conditions: Mesomycoplasma hyopneumoniae, ATCC25095, 144 h
M. suipneumoniae LABER = assay: MIC against mycoplasma in vitro; format: cell-based; conditions: Mesomycoplasma hyopneumoniae, 144 h
[4] = system: Pasteurella multocida 1633; assay: MIC against human bacteria in vitro; format: cell-based; conditions: Pasteurella multocida 1633; 5% chocolated horse blood agar, 18 hours; read-out: MIC
Bord. bronchiseptica B08 = assay: MIC against veterinary bacteria in vitro; conditions: Bordetella bronchiseptica, B08, 18 h
Description: as §1

E. coli ESS = assay: MIC against human bacteria in vitro; format: cell-based; conditions: Escherichia coli; E. coli ESS; 5% chocolated horse blood agar, 18 hours; read-out: MIC
Past. multocida PA2 = assay: MIC against veterinary bacteria in vitro; conditions: Pasteurella multocida, PA2, 18 h
Description: as §1

Staph. aureus Russell = assay: MIC against human bacteria in vitro; format: cell-based; conditions: Staphylococcus aureus; Staph. aureus Russell; 5% chocolated horse blood agar, 18 hours; read-out: MIC
[5] = system: Staph. aureus 152 (pen. sens); assay: MIC against veterinary bacteria in vitro; conditions: Staphylococcus aureus, 18 h
Description: as §1

M. dispar NCTC 10125 = assay: MIC against mycoplasma in vitro; format: cell-based; conditions: 144 h
Staph. aureus Oxford = assay: MIC against human bacteria in vitro; format: cell-based; conditions: Staphylococcus aureus; Staph. aureus Oxford; 5% chocolated horse blood agar, 18 hours; read-out: MIC
K. aerogenes A = assay: MIC against human bacteria in vitro; format: cell-based; conditions: Klebsiella aerogenes; K. aerogenes A; 5% chocolated horse blood agar, 18 hours; read-out: MIC
M. suipneumoniae MS 16 = assay: MIC against mycoplasma in vitro; format: cell-based; conditions: Mesomycoplasma hyopneumoniae, MS16, 144 h
[6] = system: M. hyosynoviae ATCC 25591; assay: MIC against mycoplasma in vitro; format: cell-based; conditions: 144 h
Staph. aureus W2827 = assay: MIC against human bacteria in vitro; format: cell-based; conditions: Staphylococcus aureus; Staph. aureus W2827; 5% chocolated horse blood agar, 18 hours; read-out: MIC
[7] = system: Strep. pyogenes R80/421-A; assay: MIC against human bacteria in vitro; format: cell-based; conditions: Streptococcus pyogenes; Strep. pyogenes R80/421-A; 5% chocolated horse blood agar, 18 hours; read-out: MIC
[8] = system: Staph. aureus B4 (pen. resistant); assay: MIC against veterinary bacteria in vitro; conditions: Staphylococcus aureus, 18 h
Description: as §1

Strep. uberis SPU1 = assay: MIC against veterinary bacteria in vitro; conditions: Streptococcus uberis, SPU1, 18 h
Description: as §1

E. coli E1 = assay: MIC against veterinary bacteria in vitro; conditions: Escherichia coli, E1, 18 h
Description: as §1

[9] = system: Strep. suis (group D) SPS11; assay: MIC against veterinary bacteria in vitro; conditions: Streptococcus suis, 18 h
Description: as §1

Strep. pneumoniae CN33 = assay: MIC against human bacteria in vitro; format: cell-based; conditions: Streptococcus pneumoniae; Strep. pneumoniae CN33; 5% chocolated horse blood agar, 18 hours; read-out: MIC
[10] = system: M. suipneumoniae J2206/183^b; assay: MIC against mycoplasma in vitro; format: cell-based; conditions: Mesomycoplasma hyopneumoniae, 144 h
M. suipneumoniae HK(2) = assay: MIC against mycoplasma in vitro; format: cell-based; conditions: Mesomycoplasma hyopneumoniae, 144 h

Row | SMILES | MIC (Strep. faecalis I) [µg/mL] | MIC (P. mirabilis 889) [µg/mL] | MIC (M. hyorhinis ATCC 25021) [µg/mL] | MIC (M. hyorhinis ATCC 23234) [µg/mL] | MIC (Sarcina lutea 8340) [µg/mL] | MIC (Bacillus subtilis 6633) [µg/mL] | MIC (S. typhimurium S18) [µg/mL] | MIC [2] [µg/mL] | MIC [4] [µg/mL] | MIC (Bord. bronchiseptica B08) [µg/mL] | MIC (E. coli ESS) [µg/mL] | MIC (Past. multocida PA2) [µg/mL] | MIC (Staph. aureus Russell) [µg/mL] | MIC [5] [µg/mL] | MIC (Staph. aureus Oxford) [µg/mL] | MIC (K. aerogenes A) [µg/mL] | MIC (M. suipneumoniae MS 16) [µg/mL] | MIC (Staph. aureus W2827) [µg/mL] | MIC [7] [µg/mL] | MIC [8] [µg/mL] | further results
1 | C/C(=C\c1ncc(C)o1)C[C@@H]1OC[C@H](C[C@@H]2O[C@H]2[C@@H](C)[C@H](C)O)[C@@H](O)[C@H]1O [Example 14, 5-Methyl-2-(1-normon-2-yl) oxazole A] | > 128 | > 128 | 2.5 (≈ 6.55 µM) | 2.5 (≈ 6.55 µM) | > 128 | 4 (≈ 10.5 µM) | > 80 | 16 (≈ 41.9 µM) | 16 (≈ 41.9 µM) | > 80 | 32 (≈ 83.9 µM) | 10 (≈ 26.2 µM) | 16 (≈ 41.9 µM) | 10 (≈ 26.2 µM) | 16 (≈ 41.9 µM) | > 128 | 2.5 (≈ 6.55 µM) | 16 (≈ 41.9 µM) | 32 (≈ 83.9 µM) | 10 (≈ 26.2 µM) | MIC [1]: 5 µg/mL (≈ 13.1 µM); MIC (M. suipneumoniae TAM 6N): 5 µg/mL (≈ 13.1 µM); MIC (M. pneumoniae ATCC 15492; M. pneumoniae ATCC 15492, 6 days, 37° C., read-out: MIC): > 10 µg/mL; MIC (M. suipneumoniae JF 435): 5 µg/mL (≈ 13.1 µM); MIC [3]: 2.5 µg/mL (≈ 6.55 µM); MIC (M. suipneumoniae LABER): 2.5 µg/mL (≈ 6.55 µM); MIC (M. dispar NCTC 10125; M. dispar NCTC 10125, 6 days, 37° C., read-out: MIC): 0.5 µg/mL (≈ 1.31 µM); MIC [6]: 5 µg/mL (≈ 13.1 µM); MIC (Strep. uberis SPU1): 2.5 µg/mL (≈ 6.55 µM); MIC (E. coli E1): > 80 µg/mL; MIC [9]: > 80 µg/mL; MIC (Strep. pneumoniae CN33): 32 µg/mL (≈ 83.9 µM); MIC [10]: 5 µg/mL (≈ 13.1 µM); MIC (M. suipneumoniae HK(2)): 5 µg/mL (≈ 13.1 µM)
2 | C/C(=C\c1ncc(-c2ccc(C=O)cc2)o1)C[C@@H]1OC[C@H](C[C@@H]2O[C@H]2[C@@H](C)[C@H](C)O)[C@@H](O)[C@H]1O [Example 15, 5-p-Formylphenyl-2-(1-normon-2-yl) oxazole A] | > 128 | > 128 | 0.25 (≈ 0.53 µM) | 0.25 (≈ 0.53 µM) | > 128 | 2 (≈ 4.24 µM) | > 80 | 4 (≈ 8.48 µM) | 32 (≈ 67.9 µM) | 80 (≈ 170 µM) | 16 (≈ 33.9 µM) | < 0.039 | 8 (≈ 17 µM) | 0.625 (≈ 1.33 µM) | 2 (≈ 4.24 µM) | > 128 | 0.25 (≈ 0.53 µM) | 8 (≈ 17 µM) | 8 (≈ 17 µM) | 2.5 (≈ 5.3 µM) | MIC ([1]; M. suipneumoniae NCTC 10110, 6 days, 37° C., read-out: MIC): 0.5 µg/mL (≈ 1.06 µM); MIC (M. suipneumoniae TAM 6N; M. suipneumoniae TAM 6N, 6 days, 37° C., read-out: MIC): 0.5 µg/mL (≈ 1.06 µM); MIC (M. pneumoniae ATCC 15492): 1 µg/mL (≈ 2.12 µM); MIC (M. suipneumoniae JF 435; M. suipneumoniae JF 435, 6 days, 37° C., read-out: MIC): 0.5 µg/mL (≈ 1.06 µM); MIC ([3]; M. suipneumoniae ATCC 25095, 6 days, 37° C., read-out: MIC): 0.5 µg/mL (≈ 1.06 µM); MIC (M. suipneumoniae LABER; M. suipneumoniae LABER, 6 days, 37° C., read-out: MIC): 0.5 µg/mL (≈ 1.06 µM); MIC (M. dispar NCTC 10125): 0.1 µg/mL (≈ 0.212 µM); MIC ([6]; M. hyosynoviae ATCC 25591, 6 days, 37° C., read-out: MIC): 0.5 µg/mL (≈ 1.06 µM); MIC (Strep. uberis SPU1): 0.625 µg/mL (≈ 1.33 µM); MIC (E. coli E1): > 80 µg/mL; MIC [9]: 20 µg/mL (≈ 42.4 µM); MIC (Strep. pneumoniae CN33): 8 µg/mL (≈ 17 µM); MIC ([10]; M. suipneumoniae J2206/183^b, 6 days, 37° C., read-out: MIC): 0.5 µg/mL (≈ 1.06 µM); MIC (M. suipneumoniae HK(2); M. suipneumoniae HK(2), 6 days, 37° C., read-out: MIC): 0.5 µg/mL (≈ 1.06 µM)
